Consider two compounds from paper PMC6757289, “Design and Characterization of SGK3-PROTAC1, an Isoform Specific SGK3 Kinase PROTAC Degrader” (ACS Chemical Biology, 2019).

In the assay the target is T1, SGK3 (Homo sapiens, UniProt Q96BR1).
T1 sequence (Q96BR1 1-496): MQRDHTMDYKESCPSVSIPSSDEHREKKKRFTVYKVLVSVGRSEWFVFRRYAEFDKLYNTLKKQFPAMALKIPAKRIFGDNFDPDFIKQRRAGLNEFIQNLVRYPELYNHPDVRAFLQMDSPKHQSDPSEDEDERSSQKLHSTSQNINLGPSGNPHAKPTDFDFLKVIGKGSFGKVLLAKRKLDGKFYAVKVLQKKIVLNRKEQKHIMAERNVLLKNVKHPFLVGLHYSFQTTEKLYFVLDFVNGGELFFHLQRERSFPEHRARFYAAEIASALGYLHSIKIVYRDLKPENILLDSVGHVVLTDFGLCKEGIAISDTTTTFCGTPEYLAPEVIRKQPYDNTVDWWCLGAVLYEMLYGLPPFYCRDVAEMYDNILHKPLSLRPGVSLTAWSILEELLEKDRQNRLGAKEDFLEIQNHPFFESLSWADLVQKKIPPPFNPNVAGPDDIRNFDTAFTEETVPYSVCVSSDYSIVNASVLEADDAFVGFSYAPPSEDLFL
The experiment in a line: TMT global proteomic analysis of HEK293 cells. The assay is classed as cell-based. Set-up: global proteomic analysis of HEK293 cells treated in the presence or absence of 0.3 μM SGK3-PROTAC1; endogenous in cells; host or cells: HEK293. To be noted: HEK293, 0.3 μM, 8 h. The protocol:
To establish the specificity of SGK3-PROTAC1 employing an unbiased approach, we performed quantitative Tandem–Mass–Tag (TMT)-labeled global proteomic analysis of HEK293 cells treated in the presence or absence of 0.3 μM SGK3-PROTAC1 compared to either 0.3 μM cisSGK3-PROTAC1 or DMSO for 8 h. Experiments were undertaken in triplicate, and analysis in Proteome Discoverer v2.2 using the Mascot search engine allowed relative quantification of 8766 proteins.
Figure 4 TMT proteomic analysis of HEK293 cells treated with SGK3-PROTAC1. (A) Cells were treated with DMSO (control), SGK3-PROTAC1 (0.3 μM), or cisSGK3-PROTAC1 (0.3 μM) for 8 h and lysed. Lysates were subjected to immunoblot analysis with the indicated antibodies. (B) Lysates were examined by quantitative proteomics. […]
Cell culture and proteomic sample preparation
Cells pellets were lysed with 2 ml of lysis buffer (8 M Urea, 50 mM Ammonium bicarbonate containing protease inhibitor and phosphatase inhibitor). The sample were left on ice for 15 min and were then sonicated for 5 min in ice-cold water bath under high intensity with 30 sec on and off. After sonication, benzonase® endonuclease (Merck Millipore) with the volume ratio of 1: 100 were added into the lysate to degrade DNA and RNA. The lysate were then centrifuged at 12,000 rpm for 15 min at 4 °C, and supernatants were transferred into new eppendorf tubes. The protein concentration were measured with BCA assay (Pierce™ BCA Protein Assay Kit, Thermo). The lysate from each sample was reduced with 5 mM DTT at 45 °C for 30 min. Lysates were briefly centrifuged and were cool down to room temperature before alkylation in the dark with 10 mM iodoacetamide at room temperature. The alkylation was then quenched by the addition of 5 mM DTT. Samples were first digested by Lys-C with the weight ratio of 1:200 (w/w) for 4 h at 30 °c. Then, sample were diluted with 50 mM ammonium bicarbonate to 1.5 M Urea concentration. Samples were then digested with trypsin (Pierce trypsin, Thermo) at an enzyme to protein ratio of 1:50 (w/w) at room temperature with gentle shaking for overnight.
The digest was stopped by the addition of 1% TFA (v/v), centrifuged at 10,000 g for 10 min at room temperature.
The supernatant were desalted on 200 mg SepPak tC18 cartridge (Waters). Desalted peptides were dried by vacuum centrifugation using Speedvac (Thermo).
TMT labelling and Basic C18 reverse phase (bRP) chromatography fractionation Each sample (200 μg of peptides each) was re-suspended in 100 μL of 100 mM TEAB buffer. The TMT labelling reagents were equilibrated to room temperature and 41 μL anhydrous acetonitrile was added to each reagent channel and softly vortexed for 10 min. Peptides were transferred to the corresponding TMT channels and incubated for 1 h at room temperature. The reaction was quenched with 8 μL of 5% hydroxylamine. To ensure complete labelling, 1 µg of labelled samples from each channel were analyzed by LC-MS/MS prior to mix. After evaluation, the complete TMT labelled 9 samples were then combined, acidified and dried. Sep-Pak desalting was then performed and the elution was dried to completeness.
Ultimate 3000 high-pressure liquid chromatography (HPLC) system (Dionex) were used for basic C18 reverse phase chromatography fractionation operating at 569 µL/min with two buffers: buffer A (10 mM ammonium formate, pH 10) and buffer B (80% ACN, 10 mM ammonium formate, pH 10). The desalted mixture of TMT-labelled peptides were resuspended in 200 µL of buffer A (10 mM ammonium formate, pH10) and separated on a C18 reverse phase column (4.6 × 250 mm, 3.5 μm, Waters) with a gradient from 3% B to 12.5 % B in 10 min, […]
min, 100% for 5 min, ramping to 3% B in 2.5 min and then 3% for 10 min. A total of 90 fractions (1 min per fraction) were collected before further concatenation into 30 final fractions. Each fraction was then dried and desalted over a C18 StageTip prior to analysis by mass spectrometry. […]

Regarding `Cc1ccc(F)c(S(=O)(=O)Nc2ccc(-c3nc(OC[C@H]4CN(CCCCCCOCCOCCOCC(=O)N[C@H](C(=O)N5C[C@H](O)C[C@H]5C(=O)NCc5ccc(-c6scnc6C)cc5)C(C)(C)C)CCO4)c4cn[nH]c4n3)cc2)c1` [SGK3-PROTAC1], the “Abundances (Grouped)” value came out at 60.6, the “Ratio: (SGK3-PROTAC1) / (cSGK3-PROTAC1)” value worked out at 0.526 and the “Ratio: (compound) / (DMSO)” value stood at 0.484. Besides, the “selectivity in global proteome (8766 proteins quantified)” value (vs cisSGK3-PROTAC1 or DMSO) was “only SGK3 expression being significantly reduced”.
`Cc1ccc(F)c(S(=O)(=O)Nc2ccc(-c3nc(OC[C@H]4CN(CCCCCCOCCOCCOCC(=O)N[C@H](C(=O)N5C[C@@H](O)C[C@H]5C(=O)NCc5ccc(-c6scnc6C)cc5)C(C)(C)C)CCO4)c4cn[nH]c4n3)cc2)c1` [cisSGK3-PROTAC1]: the “Abundances (Grouped)” value is on record as 115.2 and the “Ratio: (compound) / (DMSO)” value came out at 0.949.
